Test systems include 786-0; A498; CCRF-CEM; HCT-15; HOP-92; K562; KM12; MDA-N; MOLT-4; NCI-H23; NCI-H460; NCI/ADR-RES; OVCAR-8; RXF 393; SF-295; SF-539; SK-OV-3; SN12C; TK-10; SR.
What all share (experiment): NCI tumour cell line growth inhibition, 48 h

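Five compound concentrations were applied to cells in 96-well plates for 48 hours; endpoints were derived by simple linear interpolation of the resulting dose-response curve. The concentration for 50% growth inhibition is given as GI50.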 The source made the active and inactive calls. Rule as the data show it: active = GI50 up to about 1.1 µM and inactive = higher. Some results are limits rather than exact numbers.

As for `O=C(O)CCC1COc2ccccc2O1` (stereo not drawn), the GI50 in the assay on 786-0 is > 10 µM (inactive); in the assay on A498 it was > 10 µM (inactive); in the assay on CCRF-CEM, > 10 µM (inactive); in the assay on HCT-15 it was > 10 µM; in the assay with HOP-92, > 10 µM (inactive); with K562, > 10 µM (inactive). In addition, the GI50 with KM12, with MDA-N, with MOLT-4, with NCI-H23, in the assay with NCI-H460 and with NCI/ADR-RES was > 10 µM (inactive) in each case. In addition, the GI50 in the assay on OVCAR-8, with RXF 393, in the assay with SF-295, in the assay with SF-539, with SK-OV-3 and in the assay with SN12C was > 10 µM (inactive) throughout. In the assay with TK-10, the GI50 is > 10 µM (inactive).
Turning to `CSc1cc(Br)ccc1-n1c(C(=O)c2ccccc2)c(SC)n(-c2ccccc2)c1=O`, the GI50 in the assay on 786-0 was > 100 µM (inactive); in the assay with HCT-15, 23 µM; with HOP-92 it was > 100 µM (inactive); in the assay with K562 it was 4.81 µM (inactive); with KM12, > 100 µM (inactive); in the assay on MDA-N it was 18.5 µM (inactive). Moreover, the GI50 was 5.28 µM (inactive) with MOLT-4; 86.3 µM (inactive) in the assay with NCI-H23; 50.9 µM (inactive) with NCI-H460; 53.8 µM (inactive) in the assay on NCI/ADR-RES; > 100 µM (inactive) in the assay with OVCAR-8; 84.5 µM (inactive) with SF-295. Besides, the GI50 with SF-539 was > 100 µM (inactive); with SK-OV-3, > 100 µM (inactive); in the assay with SN12C, > 100 µM (inactive); in the assay on SR, 74.5 µM (inactive); with TK-10, > 100 µM (inactive).
Turning to `COC(=O)C1(N2CCOCC2)CCC([C@@H](c2ccccc2)C(C)[N+](=O)[O-])C1` (stereo partly drawn), the GI50 was 75.9 µM (inactive) in the assay on 786-0; > 100 µM (inactive) in the assay on A498; 0.603 µM (active) in the assay with CCRF-CEM; 66.8 µM with HCT-15; 51.6 µM (inactive) in the assay on K562; > 100 µM (inactive) with KM12. The GI50 in the assay on MDA-N, in the assay with MOLT-4, in the assay on NCI-H23, in the assay with NCI-H460, in the assay with NCI/ADR-RES and with OVCAR-8 was > 100 µM (inactive) each time. The GI50 is > 100 µM (inactive) in the assay with SF-295; > 100 µM (inactive) in the assay on SF-539; > 100 µM (inactive) with SK-OV-3; > 100 µM (inactive) in the assay with SN12C; 20.8 µM (inactive) with SR; > 100 µM (inactive) in the assay on TK-10.
With `O=C1CC(CC(O)C(O)CO)CC(=O)N1` (stereo not drawn), the GI50 in the assay with 786-0 is > 100 µM (inactive); with A498, > 100 µM (inactive); with CCRF-CEM it was > 100 µM (inactive); in the assay on HCT-15, > 100 µM; in the assay with HOP-92, > 100 µM (inactive); with K562, > 100 µM (inactive). Further, the GI50 with KM12, in the assay on MDA-N, in the assay with MOLT-4, in the assay on NCI-H23, in the assay on NCI-H460 and with NCI/ADR-RES was > 100 µM (inactive) throughout. Further, the GI50 in the assay with OVCAR-8, in the assay on SF-295, in the assay on SF-539, in the assay on SN12C and with TK-10 was > 100 µM (inactive) throughout.
For the compound `COCCOC(=O)C(C)=[N+]=[N-]`, the GI50 is > 100 µM (inactive) in the assay with 786-0; > 100 µM (inactive) in the assay on A498; > 100 µM in the assay on HCT-15; > 100 µM (inactive) in the assay on K562; > 100 µM (inactive) in the assay on KM12; > 100 µM (inactive) with MDA-N. The GI50 with NCI-H23, in the assay on NCI-H460, with NCI/ADR-RES, in the assay on OVCAR-8, in the assay with RXF 393 and in the assay with SF-295 was > 100 µM (inactive) each time. For the same compound, the GI50 in the assay on SN12C is > 100 µM (inactive); in the assay with SR, 68.1 µM (inactive); with TK-10 it was > 100 µM (inactive).
For the compound `C[C@]12CC/C(=N\OCCN3CCCC3)C=C1CCC1C2CC[C@@]2(C)C1CC[C@]2(C)O` (stereo partly drawn), the GI50 in the assay on 786-0 was 4.43 µM (inactive); in the assay with A498, 0.647 µM (active); in the assay with CCRF-CEM, 3.56 µM (inactive); in the assay on HCT-15, 3.29 µM; in the assay with HOP-92, 11.7 µM (inactive); in the assay on K562, 2.4 µM (inactive). Besides, the GI50 in the assay with KM12 is 5.09 µM (inactive); in the assay on MDA-N, 2.56 µM (inactive); in the assay on MOLT-4, 3.74 µM (inactive); in the assay with NCI-H23 it was 12.2 µM (inactive); with NCI-H460, 3.97 µM (inactive); in the assay on NCI/ADR-RES it was 3.6 µM (inactive). Besides, the GI50 was 14 µM (inactive) with OVCAR-8; 19.3 µM (inactive) with RXF 393; 3.35 µM (inactive) with SF-295; 6.62 µM (inactive) in the assay with SF-539; 18.5 µM (inactive) in the assay with SK-OV-3; 7.13 µM (inactive) in the assay with SN12C. In addition, in the assay with TK-10, the GI50 is 15.8 µM (inactive).
`CN(CCNC(=O)c1nn(-c2ccccc2)c2c1Cc1ccccc1-2)CCNC(=O)c1nn(-c2ccccc2)c2c1Cc1ccccc1-2`: the GI50 was 1.66 µM (inactive) in the assay with 786-0; 1.84 µM (inactive) with A498; 1.77 µM (inactive) in the assay on CCRF-CEM; 1.88 µM in the assay with HCT-15; 1.53 µM (inactive) in the assay on HOP-92; 2.11 µM (inactive) with K562. Moreover, the GI50 is 1.79 µM (inactive) in the assay on KM12; 1.73 µM (inactive) in the assay on MDA-N; 3.65 µM (inactive) in the assay on MOLT-4; 1.87 µM (inactive) in the assay on NCI-H23; 1.69 µM (inactive) with NCI-H460; 2.17 µM (inactive) in the assay with NCI/ADR-RES. Further, the GI50 in the assay with OVCAR-8 was 1.68 µM (inactive); with RXF 393 it was 1.57 µM (inactive); in the assay on SF-295, 1.81 µM (inactive); in the assay on SF-539, 2.17 µM (inactive); with SK-OV-3, 2 µM (inactive); in the assay on SN12C, 1.83 µM (inactive). For the same compound, the GI50 with TK-10 was 2.04 µM (inactive).
Regarding `CC(=O)O[C@H]1C(=O)[C@@]2(C)[C@H]([C@H](OC(=O)C3CCCCC3)[C@]3(O)C[C@H](OC(=O)[C@H](O)[C@@H](NC(=O)OC(C)(C)C)c4ccccc4)C(C)=C1C3(C)C)[C@]1(OC(C)=O)CO[C@@H]1C[C@@H]2O`, the GI50 in the assay with 786-0 is 0.0176 µM (active); with CCRF-CEM, 0.00499 µM (active); in the assay with HCT-15, 0.268 µM; with HOP-92 it was 0.0148 µM (active); in the assay with K562 it was 0.00275 µM (active); in the assay on KM12, 0.00731 µM (active). In addition, the GI50 with MDA-N was 0.00169 µM (active); in the assay on MOLT-4, 0.00474 µM (active); with NCI-H23, 0.0261 µM (active); in the assay with NCI-H460 it was 0.00762 µM (active); with NCI/ADR-RES, > 3.03 µM (inactive); in the assay with OVCAR-8 it was 0.0144 µM (active). In addition, the GI50 in the assay with RXF 393 was 0.0331 µM (active); with SF-295 it was 0.027 µM (active); in the assay on SF-539 it was 0.00298 µM (active); with SK-OV-3, 0.0151 µM (active); in the assay with SN12C, 0.0385 µM (active); in the assay with SR it was 0.00542 µM (active). Also, the GI50 with TK-10 was 0.151 µM (active).
In the case of `CC(C)(C)OC(=O)c1ccc(NCC2=C(Br)C(=O)C=CC2=O)cc1`, the GI50 in the assay with 786-0 is 17.5 µM (inactive); in the assay on CCRF-CEM it was 2.42 µM (inactive); in the assay with HCT-15, 15.6 µM; in the assay with HOP-92, 14.5 µM (inactive); in the assay with K562, 11.7 µM (inactive); with KM12, 33.3 µM (inactive). For the same compound, the GI50 with MDA-N is 20 µM (inactive); with MOLT-4, 1.42 µM (inactive); with NCI-H23, 19.6 µM (inactive); with NCI-H460, 36.3 µM (inactive); with NCI/ADR-RES it was 20.1 µM (inactive); in the assay on OVCAR-8, 16.5 µM (inactive). The GI50 with RXF 393 was 13.7 µM (inactive); in the assay on SF-295, 65.9 µM (inactive); in the assay with SF-539, 21.5 µM (inactive); with SK-OV-3, > 64.9 µM (inactive); with SN12C it was 18.7 µM (inactive); with SR, 11.7 µM (inactive). In addition, in the assay on TK-10, the GI50 is 22.1 µM (inactive).
As for `N#CCC1COc2ccccc2O1` (stereo not drawn), the GI50 with 786-0 was > 10 µM (inactive); in the assay on CCRF-CEM, > 10 µM (inactive); with HCT-15, > 10 µM; in the assay on HOP-92, > 10 µM (inactive); in the assay with K562, > 10 µM (inactive); in the assay with KM12, > 10 µM (inactive). Besides, the GI50 in the assay with MDA-N, in the assay on MOLT-4, in the assay with NCI-H23, in the assay with NCI/ADR-RES, in the assay on OVCAR-8 and in the assay on SF-295 was > 10 µM (inactive) each time. The GI50 in the assay on SF-539, in the assay on SK-OV-3, with SN12C, with SR and with TK-10 was > 10 µM (inactive) each time.
Take `CCSC1SC(c2ccccc2)(c2ccccc2)c2ccccc21` (stereo not drawn): the GI50 in the assay on 786-0 is 43.4 µM (inactive); in the assay with A498, 22.5 µM (inactive); in the assay on CCRF-CEM, 54 µM (inactive); with HCT-15 it was 42.1 µM; with HOP-92, 30.8 µM (inactive); with K562, 62.4 µM (inactive). For the same compound, the GI50 in the assay on KM12 is 38.5 µM (inactive); in the assay with MDA-N it was 35.9 µM (inactive); with MOLT-4 it was 25.4 µM (inactive); with NCI-H23 it was 47.9 µM (inactive); in the assay on NCI-H460, 36.9 µM (inactive); in the assay with NCI/ADR-RES, 43.2 µM (inactive). The GI50 in the assay on OVCAR-8 is 64.7 µM (inactive); with RXF 393 it was 19.5 µM (inactive); in the assay on SF-295, 70 µM (inactive); in the assay on SF-539 it was > 100 µM (inactive); in the assay with SK-OV-3 it was > 100 µM (inactive); in the assay with SN12C it was 38.3 µM (inactive). The GI50 in the assay on TK-10 was 67.3 µM (inactive).

For the origin of these results see ChEMBL document CHEMBL1201862, “PubChem BioAssay data set” (2004).
